Experiment: Cell viability measurement (MTS), Calu-3 cells
Type: cell-based
Conditions: human
Protocol: Experimental Example 3: Cell Viability Measurement
Vero cell line (VERO01WCB-1201, Ministry of Food and Drug Safety, Republic of Korea), Calu-3 cell line (KCLB #30055, Korea Cell Line Bank (KCLB), Republic of Korea), CellTiter 96® AQueous One Solution Cell Proliferation Assay kit (Promega, cat. #G3582), and Infinite M200 microplate reader (Tecan).
Calu-3 cells were cultured at 37 °C and 5% CO2 in MEM medium supplemented with 10% fetal bovine serum, 2.2 g/L sodium bicarbonate, 1% 100 units/mL penicillin, and 100 μg/mL streptomycin.
Vero cells or Calu-3 cells were seeded in 96-well microplates and cultured for 24 hours until the cell confluency reached 20%. After the incubation, compounds were treated in DMSO at concentrations (1, 3, and 10 μM) to reach 0.5% v/v in each well, and reacted at 37 °C for 48 hours. Into each well of the incubated 96-well microplate, 3-(4,5-dimethylthiazol-2-yl)-5-(3-carboxymethoxyphenyl)-2-(4-sulfophenyl)-2H-tetrazolium salt (MTS) assay solution [CellTiter 96® AQueous One Solution Cell Proliferation Assay kit (Promega)] mixed with DMEM medium at a ratio of 1:5, was dispensed at 100 μL/well and incubated at 37 °C for 1 hour. The 490 nm and 690 nm absorbance was then measured using an Infinite M200 instrument.
The cell viability (also, referred to as cell survival rate) (%) by compound treatment was calculated using the following analysis method. The 690 nm background absorbance value was subtracted from the measured 490 nm absorbance value. Then, to obtain the cell viability of each test group, the viability of the DMSO-treated group that was not treated with the compound was set to 100% and then the relative viability 1 of each compound was calculated. Two to six repeated tests were performed to obtain the results, and the mean values of the results were categorized into the following ranges and shown in Table 5 below (A: 80% survived, B: 50-80% survived, N/A: not tested)

`Clc1cc2[nH]c(-c3cccc(Nc4cnc(-c5ccccn5)cn4)c3)nc2cn1` [Example 301, N-(3-(6-chloro-1H-imidazo[4,5-c]pyridin-2-yl)phenyl)-5-(pyridin-2-yl)pyrazin-2-amine] showed a viability at 48 h, 10 µM of over 80%.

With `FC(F)(F)Oc1ccc2nc(-c3cccc(Nc4ccc(-c5ccncn5)cc4)c3)[nH]c2c1` [Example 109, N-(4-pyrimidin-4-ylphenyl)-3-[6-(trifluoromethoxy)-1H-benzo[d]imidazol-2-yl]aniline] the viability at 48 h, 1 µM was 50 to 80%.

Work on `Fc1cc2[nH]c(-c3cccc(Nc4ncc(-c5ccccn5)cn4)c3)nc2cn1` [Example 286, N-(3-(6-fluoro-1H-imidazo[4,5-c]pyridin-2-yl)phenyl)-5-(pyridin-2-yl)pyrimidin-2-amine] yielded a viability at 48 h, 10 µM of over 80%.

`FC(F)(F)Oc1ccc2nc(-c3cccc(Nc4ncc(-c5cccnn5)cn4)c3)[nH]c2c1` [Example 295, 5-(pyridazin-3-yl)-N-(3-(6-(trifluoromethoxy)-1H-benzo[d]imidazol-2-yl)phenyl)pyrimidin-2-amine] showed a viability at 48 h, 10 µM of over 80%.

In the case of `FC(F)Oc1ccc2nc(-c3cccc(Nc4cnc(-c5ccccn5)cn4)c3)[nH]c2c1` [Example 300, N-(3-(6-(difluoromethoxy)-1H-benzo[d]imidazol-2-yl)phenyl)-5-(pyridin-2-yl) pyrazin-2-amine], the viability at 48 h, 10 µM is reported as over 80%.

`Fc1cc2[nH]c(-c3cccc(Nc4ccc(-c5cccnn5)cc4)c3)nc2cc1C(F)(F)F` [Example 104, 3-[6-fluoro-5-(trifluoromethyl)-1H-benzo[d]imidazol-2-yl]-N-(4-pyridazin-3-ylphenyl)aniline] showed a viability at 48 h, 1 µM of 50 to 80% and a viability at 48 h, 3 µM of 50 to 80%.

`Fc1ccc2nc(-c3cccc(Nc4ccc(-c5ccccn5)cc4)c3)[nH]c2c1` [Example 92, 3-(6-fluoro-1H-benzo[d]imidazol-2-yl)-N-[4-(2-pyridyl)phenyl]aniline] gave a viability at 48 h, 1 µM of 50 to 80%.

In the case of `c1cnc(-c2ccc(Nc3cccc(-c4nc5ccccc5[nH]4)c3)nc2)nc1` [Example 69, N-(3-(1H-benzo[d]imidazol-2-yl)phenyl)-5-(pyrimidin-2-yl)pyridin-2-amine], the viability at 48 h, 1 µM is reported as over 80%.

In the case of `Fc1cc2nc(-c3cccc(Nc4ccc(-c5ccncn5)cc4)c3)[nH]c2cc1F` [Example 95, 3-(5,6-difluoro-1H-benzo[d]imidazol-2-yl)-N-(4-pyrimidin-4-ylphenyl)aniline], the viability at 48 h, 1 µM is reported as 50 to 80%.

`c1ccc(-c2ccc(Nc3cccc(-c4nc5ccccc5[nH]4)c3)cn2)cc1` [Example 80, N-[3-(1H-benzo[d]imidazol-2-yl)phenyl]-6-phenyl-pyridin-3-amine] gave a viability at 48 h, 1 µM of over 80% and a viability at 48 h, 3 µM of 50 to 80%.

For `Cc1cccc2nc(-c3cccc(Nc4ccc(-c5cccnn5)cc4)c3)[nH]c12` [Example 101, 3-(7-methyl-1H-benzo[d]imidazol-2-yl)-N-(4-pyridazin-3-ylphenyl)aniline], the viability at 48 h, 1 µM was over 80%.

For `COc1ccc2nc(-c3cccc(Nc4ncc(-c5cccnn5)cn4)c3)[nH]c2c1` [Example 108, N-[3-(6-methoxy-1H-benzo[d]imidazol-2-yl)phenyl]-5-pyridazin-3-yl-pyrimidin-2-amine], the viability at 48 h, 1 µM was over 80%, the viability at 48 h, 3 µM was over 80% and the viability at 48 h, 10 µM was over 80%.

In the case of `c1ccc(-c2ccc(Nc3cccc(-c4nc5ccccc5[nH]4)c3)cc2)cc1` [Example 19, N-[3-(1H-benzo[d]imidazol-2-yl)phenyl]-[1,1′-biphenyl]-4-amine], the viability at 48 h, 1 µM is reported as 50 to 80% and the viability at 48 h, 3 µM is reported as 50 to 80%.

`FC(F)(F)Oc1cc2nc(-c3cccc(Nc4ncc(-c5cccnn5)cn4)c3)[nH]c2cc1Cl` [Example 120, N-[3-[6-chloro-5-(trifluoromethoxy)-1H-benzo[d]imidazol-2-yl]phenyl]-5-pyridazin-3-yl-pyrimidin-2-amine] gave a viability at 48 h, 10 µM of over 80%.

`Fc1cc2nc(-c3cccc(Nc4cnc(-c5ccncn5)cn4)c3)[nH]c2cc1F` [Example 297, N-(3-(5,6-difluoro-1H-benzo[d]imidazol-2-yl)phenyl)-5-(pyrimidin-4-yl)pyrazin-2-amine] gave a viability at 48 h, 10 µM of over 80%.

`c1cc(Nc2ccc(C3CCCCC3)cc2)cc(-c2nc3ccccc3[nH]2)c1` [Example 97, 3-(1H-benzo[d]imidazol-2-yl)-N-(4-cyclohexylphenyl)aniline] gave a viability at 48 h, 1 µM of over 80% and a viability at 48 h, 3 µM of 50 to 80%.

Compound `c1cc(Nc2ncc(-c3cncnc3)cn2)cc(-c2nc3ccccc3[nH]2)c1` [Example 70, N-[3-(1H-benzo[d]imidazol-2-yl)phenyl]-[5,5′-bipyrimidin]-2-amine] has a viability at 48 h, 1 µM of over 80% and a viability at 48 h, 3 µM of 50 to 80%.

`FC(F)(F)Oc1ccc2nc(-c3cccc(Nc4ncc(-c5ccccn5)cn4)c3)[nH]c2c1` [Example 118, 5-(2-pyridyl)-N-[3-[6-(trifluoromethoxy)-1H-benzo[d]imidazol-2-yl]phenyl]pyrimidin-2-amine] gave a viability at 48 h, 10 µM of 50 to 80%.

Compound `FC(F)(F)c1ccc2nc(-c3cccc(Nc4ccc(-c5ccccn5)cc4)c3)[nH]c2c1` [Example 98, N-[4-(2-pyridyl)phenyl]-3-[6-(trifluoromethyl)-1H-benzo[d]imidazol-2-yl]aniline] has a viability at 48 h, 1 µM of 50 to 80%.

Work on `c1cnc(-c2cnc(Nc3cccc(-c4nc5ccccc5[nH]4)c3)nc2)nc1` [Example 71, N-[3-(1H-benzo[d]imidazol-2-yl)phenyl]-[2,5′-bipyrimidin]-2′-amine] yielded a viability at 48 h, 1 µM of over 80% and a viability at 48 h, 3 µM of 50 to 80%.

Work on `c1cc(Nc2ncc(-c3cccnn3)cn2)cc(-c2nc3cnccc3[nH]2)c1` [Example 49, N-(3-{1H-imidazolo[4,5-c]pyridin-2-yl}phenyl)-5-(pyridazin-3-yl)pyrimidin-2-amine] yielded a viability at 48 h, 1 µM of over 80%, a viability at 48 h, 3 µM of over 80% and a viability at 48 h, 10 µM of over 80%.

`c1cc(Nc2ccc(-c3ccnnc3)cc2)cc(-c2nc3ccccc3[nH]2)c1` [Example 94, 3-(1H-benzo[d]imidazol-2-yl)-N-(4-pyridazin-4-ylphenyl)aniline] gave a viability at 48 h, 1 µM of 50 to 80%.

`c1cc(Nc2ccc(-c3ccncc3)cc2)cc(-c2nc3ccccc3[nH]2)c1` [Example 33, N-[3-(1H-benzo[d]imidazol-2-yl)phenyl]-4-(pyridin-4-yl)aniline] gave a viability at 48 h, 1 µM of 50 to 80%.

`Fc1cc2nc(-c3cccc(Nc4ncc(-c5cccnn5)cn4)c3)[nH]c2cc1F` [Example 99, N-[3-(5,6-difluoro-1H-benzo[d]imidazol-2-yl)phenyl]-5-pyridazin-3-yl-pyrimidin-2-amine] gave a viability at 48 h, 1 µM of over 80%, a viability at 48 h, 3 µM of over 80% and a viability at 48 h, 10 µM of over 80%.

Compound `FC(F)(F)c1cc2[nH]c(-c3cccc(Nc4ncc(-c5cccnn5)cn4)c3)nc2cn1` [Example 103, 5-pyridazin-3-yl-N-[3-[6-(trifluoromethyl)-1H-imidazo[4,5-c]pyridin-2-yl]phenyl]pyrimidin-2-amine] has a viability at 48 h, 1 µM of over 80%, a viability at 48 h, 3 µM of over 80% and a viability at 48 h, 10 µM of over 80%.

Work on `c1cc(Nc2ccc(-c3ccncn3)cn2)cc(-c2nc3ccccc3[nH]2)c1` [Example 68, N-[3-(1H-benzo[d]imidazol-2-yl)phenyl]-5-(pyrimidin-4-yl)pyridin-2-amine] yielded a viability at 48 h, 1 µM of 50 to 80%.

Compound `c1cc(Nc2ncc(-c3cccnn3)cn2)cc(-c2nc3ccccc3[nH]2)c1` [Example 53, N-[3-(1H-benzo[d]imidazol-2-yl)phenyl]-5-(pyridazin-3-yl)pyrimidin-2-amine] has a viability at 48 h, 1 µM of over 80%, a viability at 48 h, 3 µM of 50 to 80% and a viability at 48 h, 10 µM of 50 to 80%.
